This note sets out measurements from patent US11142554B2 (MASSACHUSETTS INSTITUTE OF TECHNOLOGY, priority 2015, dated 2021).

Test [1] deals with KSBcl-2. The experiment in a line: receptor | KSBcl-2.
The target in test [2] is T1, Bcl-xL (Homo sapiens, UniProt Q07817). The experiment in a line: receptor | Bcl-xL.
Target sequence in this assay (Q07817 whole entry, looked up): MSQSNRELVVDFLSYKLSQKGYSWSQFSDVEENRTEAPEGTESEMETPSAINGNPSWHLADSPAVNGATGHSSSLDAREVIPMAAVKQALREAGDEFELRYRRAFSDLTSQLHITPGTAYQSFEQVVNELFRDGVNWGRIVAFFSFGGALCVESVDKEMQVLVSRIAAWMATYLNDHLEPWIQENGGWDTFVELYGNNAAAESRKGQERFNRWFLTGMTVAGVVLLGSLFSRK
In test [3] the target is Bcl-w (Homo sapiens, UniProt Q92843). As to the kind of experiment: receptor | Bcl-w.
The target of test [4] is Bfl-1 (Homo sapiens, UniProt Q16548). As to the kind of experiment: receptor | Bfl-1.
Test [5] concerns the target T2, Bcl-2 (Homo sapiens, UniProt P10415). The experiment in a line: receptor | Bcl-2.
Target sequence in this assay (P10415 whole entry, looked up): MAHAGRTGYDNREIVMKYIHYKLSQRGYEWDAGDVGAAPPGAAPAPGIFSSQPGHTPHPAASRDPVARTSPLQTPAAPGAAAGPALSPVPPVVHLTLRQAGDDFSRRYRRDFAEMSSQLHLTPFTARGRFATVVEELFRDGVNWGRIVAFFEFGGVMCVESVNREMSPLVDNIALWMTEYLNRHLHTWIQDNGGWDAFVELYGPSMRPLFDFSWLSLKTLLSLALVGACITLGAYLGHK
In test [6] the target is T3, Bcl-w (Homo sapiens, UniProt Q92843).
T3 sequence (Q92843 1-193): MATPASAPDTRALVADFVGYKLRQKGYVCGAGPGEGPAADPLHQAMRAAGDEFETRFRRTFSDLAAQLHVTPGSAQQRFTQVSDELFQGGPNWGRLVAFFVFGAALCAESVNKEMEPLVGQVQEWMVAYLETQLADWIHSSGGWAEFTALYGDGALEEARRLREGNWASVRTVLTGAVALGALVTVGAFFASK
As to the kind of experiment: Fluorescence anisotropy direct binding of N-terminal fluorescein peptides.

Test [7] deals with T2, Bcl-2. Described as above.
Target sequence in this assay (P10415 whole entry): as the sequence (P10415 whole entry, looked up) above
Test [8] deals with Pfeiffer cells. The note with it: Pfeiffer. How it is done: (§1) A whole-cell BH3 profiling assay was used to test the specificity of our Mcl-1-binding peptides in several cell lines with differing dependencies on Bcl-2, Mcl-1, Bcl-xL, or Bfl-1. In this assay, permeabilized cells were treated with increasing doses of BH3 peptides, and mitochondrial outer membrane permeabilization (MOMP) was monitored using the dye JC-1 (see below). Mcl-1/Myc 2640 is an engineered murine leukemia cell line overexpressing murine Mcl-1 and Myc, and Bcl-2/Myc 2924 is a similarly engineered cell line overexpressing human Bcl-2.
(§2) Assay plates were produced by serial dilution of each peptide from 200 μM to 0.2 nM using 10-fold dilutions in DTEB (Derived from Trehalose Experimental Buffer: 135 mM trehalose, 50 mM KCl, 20 μM EDTA, 20 μM EGTA, 0.1% BSA, 5 mM succinate, 10 mM HEPES-KOH pH 7.5) containing 0.005% w/v digitonin, 10 mM 2-mercaptoethanol, 2 μM JC-1, and 20 mg mL-1 oligomycin. Triplicate wells for each peptide were made for each cell line by adding 15 μL of the peptide dilutions to each well of a black, untreated 384-well plate. Control wells containing no peptide or 20 μM FCCP (carbonyl cyanide-4(trifluoromethoxy) phenylhydrazone, a chemical uncoupler of oxidative phosphorylation) were included for zero and complete depolarization, respectively. Multiple plates were produced from the same stock and frozen at −80 ° C. for later use. Frozen plates were brought to RT prior to use, cells were suspended in DTEB at a density of 1.34×10^6 cells/mL, and 15 μL of cell suspension was added to each well of the dilution series to yield wells ranging from 0.1 nM to 100 μM peptide and 20000 cells/well. Fluorescence of JC-1 aggregates was measured at 590 nm with 545 nm excitation on a Tecan Safire2 at 5 min intervals for 3 h. The area under each signal-vs-time curve was calculated and normalized to the untreated and FCCP values to produce the percent depolarization. Curves were plotted as the log [peptide] vs percent depolarization, with sigmoidal dose—response curves fitted using Graphpad PRISM 6.

Test [9] deals with T1, Bcl-xL. As to the kind of experiment: Fluorescence anisotropy direct binding of N-terminal fluorescein peptides.
Target sequence in this assay (Q07817 whole entry): as the sequence (Q07817 whole entry, looked up) above
The target of test [10] is T4, Bfl-1 (Homo sapiens, UniProt Q16548).
T4 sequence (Q16548 1-175): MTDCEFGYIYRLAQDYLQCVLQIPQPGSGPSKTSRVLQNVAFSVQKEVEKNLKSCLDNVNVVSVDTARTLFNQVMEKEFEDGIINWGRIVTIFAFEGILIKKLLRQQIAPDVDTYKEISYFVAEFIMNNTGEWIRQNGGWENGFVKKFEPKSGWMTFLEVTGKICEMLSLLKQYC
Described as above.

Test [11] relates to Mcl-1/Myc 2640 cells. The note with it: Mcl-1/Myc 2640. The method, then:
as §1, §2

For test [12], the system named is MDA-MB-231 cells. The note with it: MDA-MB-231. The method, then:
as §1, §2

Test [13] has as its system Bcl-2/Myc 2924 cells. To be noted: Bcl-2/Myc 2924. The method, then: as §1, §2

Residues, ends and D or L forms follow the SMILES beside them.

For orientation: Kd means a measure of binding affinity in units of concentration.

Consider `CC[C@H](C)[C@H](NC(=O)[C@H](CCC(=O)O)NC(=O)[C@H](CC(=O)O)NC(=O)CNC(=O)[C@H](CC(C)C)NC(=O)[C@H](CCCNC(=N)N)NC(=O)[C@H](CCCNC(=N)N)NC(=O)[C@H](CC(C)C)NC(=O)CNC(=O)[C@H](CCC(N)=O)NC(=O)CNC(=O)[C@H](CCSC)NC(=O)[C@H](Cc1c[nH]c2ccccc12)NC(=O)[C@@H](NC(=O)[C@H](CCC(=O)O)NC(=O)[C@@H]1CCCN1C(=O)[C@@H](N)CCCNC(=N)N)[C@@H](C)CC)C(=O)N[C@@H](CC(N)=O)C(=O)N[C@@H](C)C(=O)N[C@@H](Cc1ccc(O)cc1)C(=O)N[C@@H](Cc1ccc(O)cc1)C(=O)N[C@@H](C)C(=O)N[C@@H](CCCNC(=N)N)C(N)=O` [A12] (H-RPEIWMGQGLRRLGDEINAYYAR-NH2; N-terminus and C-terminus assumed), for which, in [1], the Kd was 4 ± 2.6 nM.

On to `CC[C@H](C)[C@H](NC(=O)[C@H](CCC(=O)O)NC(=O)[C@H](CC(=O)O)NC(=O)CNC(=O)[C@H](CC(C)C)NC(=O)[C@H](CCCNC(=N)N)NC(=O)[C@H](CCC(N)=O)NC(=O)[C@H](CC(C)C)NC(=O)[C@H](CO)NC(=O)[C@H](CCC(N)=O)NC(=O)CNC(=O)[C@H](CC(C)C)NC(=O)[C@H](Cc1c[nH]c2ccccc12)NC(=O)[C@@H](NC(=O)[C@H](CCC(=O)O)NC(=O)[C@@H]1CCCN1C(=O)[C@@H](N)CCCNC(=N)N)[C@@H](C)CC)C(=O)N[C@@H](CC(N)=O)C(=O)N[C@@H](C)C(=O)N[C@@H](Cc1ccc(O)cc1)C(=O)N[C@@H](Cc1ccc(O)cc1)C(=O)N[C@@H](C)C(=O)N[C@@H](CCCNC(=N)N)C(N)=O` [B3] (H-RPEIWLGQSLQRLGDEINAYYAR-NH2; N-terminus and C-terminus assumed), for which the Kd in [1] was determined as 1.43 ± 1.39 nM.

On to `CC[C@H](C)[C@H](NC(=O)[C@H](CCCNC(=N)N)NC(=O)[C@H](CCCNC(=N)N)NC(=O)[C@H](CC(C)C)NC(=O)[C@H](CCC(=O)O)NC(=O)[C@H](CCC(N)=O)NC(=O)[C@@H](NC(=O)[C@@H](NC(=O)[C@H](Cc1c[nH]c2ccccc12)NC(=O)[C@@H](NC(=O)[C@H](CCC(=O)O)NC(=O)[C@@H]1CCCN1C(=O)[C@@H](N)CCCNC(=N)N)[C@@H](C)CC)[C@@H](C)CC)[C@@H](C)O)C(=O)NCC(=O)N[C@@H](CC(=O)O)C(=O)N[C@@H](CCC(=O)O)C(=O)N[C@@H](Cc1ccccc1)C(=O)N[C@@H](CC(N)=O)C(=O)N[C@@H](C)C(=O)N[C@@H](Cc1ccc(O)cc1)C(=O)N[C@@H](Cc1ccc(O)cc1)C(=O)N[C@@H](C)C(=O)N[C@@H](CCCNC(=N)N)C(N)=O` [Bim_A2eT], for which the Kd worked out at 17 ± 4.8 nM in test [2], 39 ± 9.4 nM in [3], 31 ± 6.8 nM in test [4] and 43 ± 12 nM in test [5].

For `CC[C@H](C)[C@H](NC(=O)[C@H](CCCNC(=N)N)NC(=O)[C@H](CCCNC(=N)N)NC(=O)[C@H](CC(C)C)NC(=O)[C@H](CCC(=O)O)NC(=O)[C@H](CCC(N)=O)NC(=O)[C@@H](NC(=O)[C@H](CCSC)NC(=O)[C@H](Cc1c[nH]c2ccccc12)NC(=O)[C@@H](NC(=O)[C@H](CCC(=O)O)NC(=O)[C@@H]1CCCN1C(=O)[C@@H](N)CCCNC(=N)N)[C@@H](C)CC)[C@@H](C)O)C(=O)NCC(=O)N[C@@H](CC(=O)O)C(=O)N[C@@H](CCC(=O)O)C(=O)N[C@@H](Cc1ccccc1)C(=O)N[C@@H](CC(N)=O)C(=O)N[C@@H](C)C(=O)N[C@@H](Cc1ccc(O)cc1)C(=O)N[C@@H](Cc1ccc(O)cc1)C(=O)N[C@@H](C)C(=O)N[C@@H](CCCNC(=N)N)C(N)=O` [Bim_A2eT_I2dM], the Kd in test [2] came out at 83 ± 53 nM; in test [3], 260 ± 52 nM; in test [4] it was 150 ± 69 nM; in test [5], 210 ± 71 nM.

Take `CC[C@H](C)[C@H](NC(=O)[C@H](CCC(=O)O)NC(=O)[C@@H]1CCCN1C(=O)[C@@H](N)CCCNC(=N)N)C(=O)N[C@@H](Cc1c[nH]c2ccccc12)C(=O)N[C@H](C(=O)N[C@H](C(=O)N[C@@H](CCC(N)=O)C(=O)N[C@@H](CCC(=O)O)C(=O)N[C@@H](CC(C)C)C(=O)N[C@@H](CCCNC(=N)N)C(=O)N[C@@H](CCCNC(=N)N)C(=O)N[C@@H](CC(C)C)C(=O)NCC(=O)N[C@@H](CC(=O)O)C(=O)N[C@@H](CCC(=O)O)C(=O)N[C@@H](Cc1ccccc1)C(=O)N[C@@H](CC(N)=O)C(=O)N[C@@H](C)C(=O)N[C@@H](Cc1ccc(O)cc1)C(=O)N[C@@H](Cc1ccc(O)cc1)C(=O)N[C@@H](C)C(=O)N[C@@H](CCCNC(=N)N)C(N)=O)[C@@H](C)O)[C@@H](C)CC` [Bim_A2eT_I3dL]: the Kd in test [2] came out at 7.6 ± 3.8 nM; in test [3] it was 12 ± 2.6 nM; in test [4], 120 ± 27 nM; in test [5], 37 ± 14 nM.

Regarding `CC[C@H](C)[C@H](NC(=O)[C@H](CCC(=O)O)NC(=O)[C@H](CC(=O)O)NC(=O)CNC(=O)[C@H](CC(C)C)NC(=O)[C@H](CCCNC(=N)N)NC(=O)[C@H](CCC(N)=O)NC(=O)[C@H](CC(C)C)NC(=O)[C@H](Cc1c[nH]cn1)NC(=O)[C@H](CCC(N)=O)NC(=O)[C@@H](NC(=O)[C@H](CC(C)C)NC(=O)[C@H](Cc1c[nH]c2ccccc12)NC(=O)[C@@H](NC(=O)[C@H](CCC(=O)O)NC(=O)[C@@H]1CCCN1C(=O)[C@@H](N)CCCNC(=N)N)[C@@H](C)CC)[C@@H](C)O)C(=O)N[C@@H](CC(N)=O)C(=O)N[C@@H](C)C(=O)N[C@@H](Cc1ccc(O)cc1)C(=O)N[C@@H](Cc1ccc(O)cc1)C(=O)N[C@@H](C)C(=O)N[C@@H](CCCNC(=N)N)C(N)=O` [MS3], the Kd was 340 ± 69 nM in test [3] and 790 ± 140 nM in [4].

`CC[C@H](C)[C@H](NC(=O)[C@H](CCC(=O)O)NC(=O)[C@H](CC(=O)O)NC(=O)CNC(=O)[C@H](CC(C)C)NC(=O)[C@H](CCCNC(=N)N)NC(=O)[C@H](CCC(N)=O)NC(=O)[C@H](CC(C)C)NC(=O)[C@H](Cc1c[nH]cn1)NC(=O)[C@H](CCC(N)=O)NC(=O)[C@@H](NC(=O)[C@H](CC(C)C)NC(=O)[C@H](Cc1c[nH]c2ccccc12)NC(=O)[C@@H](NC(=O)[C@H](CCC(=O)O)NC(=O)[C@@H]1CCCN1C(=O)[C@H](CCCNC(=N)N)NC(C)=O)[C@@H](C)CC)[C@@H](C)O)C(=O)N[C@@H](CC(N)=O)C(=O)N[C@@H](C)C(=O)N[C@@H](Cc1ccc(O)cc1)C(=O)N[C@@H](Cc1ccc(O)cc1)C(=O)N[C@@H](C)C(=O)N[C@@H](CCCNC(=N)N)C(N)=O` [MS3]: the “binding affinity to Bcl-w (in words)” value in [6] is listed as “several-hundred nanomolar affinity”. Also, in [7], the “binding affinity to Bcl-2 (in words)” value was “micromolar affinity”. Further, the “depolarization response (in words)” value in test [8] is on record as “stronger response in Pfeiffer than MS1 or MS2”. In addition, the “binding affinity to Bcl-xL (in words)” value in test [9] was “micromolar affinity”. For the same compound, the “binding affinity to Bfl-1 (in words)” value in [10] is on record as “several-hundred nanomolar affinity”.

Regarding RPEIWITQGLRRIGDEFNAYYAR [Bim_A2eT_E2gG], the “depolarization response (in words)” value is “strong depolarization response” in test [11]; “depolarization response intermediate to that of Bim and MS1” in [12]; “depolarization response intermediate to that of Bim and MS1” in test [8]; “depolarization response intermediate to that of Bim and MS1” in [13].

For the compound RPEIWLTQSLQRLGDEINAYYAR [MS2], the Kd in [1] is less than 1 nM.

Turning to RPEIWMTQGLRRLGDEINAYYAR [MS1], the Kd in [1] was determined as 2.9 ± 0.68 nM.
